{"source": "paper PMC11141866", "about": "“Pyrimidine depletion enhances targeted and immune therapy combinations in acute myeloid leukemia” (JCI Insight, 2024)", "key": {"Micronucleus Test": {"experiment": "Micronucleus Test", "details": "5 strain test with S9 activation (so in the source)", "excerpt": "(§1) Supplement jciinsight-9-173646-s083.xlsx, sheet \"Supplemental Table S.2.\" | column: HOSU-53"}, "[1]": {"test_system": "HL-60 disseminated CDX model", "experiment": "HL-60 CDX synergy with decitabine", "type": "in vivo, NCG mice", "details": "Decitabine 0.4 mpk IP (4on/10off), HOSU53 10 mpk p.o. qd, or both; flag 0 = censored at day 82", "description": "Female 8- to 12-week-old female NCG mice were engrafted with 1 × 10^7 cells via tail vein i.v. injection. At 14 days after engraftment (day 1 of treatment), mice (n = 10/arm) were randomized to receive p.o. qd and i.p. vehicle (p.o. qd 40% HPβCD and 4 on/10 off i.p. PBS), 10 mg/kg HOSU-53, i.p. 0.4 mg/kg decitabine on a 4-day on/10-day off cycle, or their combination till moribundity or end of study day 82."}, "OCI-AML3": {"test_system": "OCI-AML3", "experiment": "MTS proliferation assay, OCI-AML3", "type": "cell-based", "details": "Homo sapiens, OCI-AML-3; OCI-AML3, 96-hour treatment; read-out: IC50 (MTS proliferation)", "description": "A total of 10,000–20,000 cells from different AML lines or 50,000–75,000 cells of primary AML blasts were treated in a 96-well plate for 72 hours or 96 hours at 37°C, 5% CO2. CellTiter 96 Aqueous MTS reagent (Promega) was added to cells followed by a 3-hour incubation at 37°C, 5% CO2. The absorbance was measured at 490 nm using DTX 880 plate reader, and the IC50 was calculated using GraphPad Prism."}, "plasma DHO": {"test_system": "plasma DHO", "experiment": "DHO plasma accumulation in MOLM-13 tumor-bearing mice", "type": "in vivo, NCG mice", "set-up": "unit not given here", "details": "10 mpk PO, female mice, per mouse, 10 mg/kg"}, "CYP 3A4": {"molecular_target": "CYP 3A4 (Homo sapiens, UniProt P08684)", "sequence (P08684 whole entry)": "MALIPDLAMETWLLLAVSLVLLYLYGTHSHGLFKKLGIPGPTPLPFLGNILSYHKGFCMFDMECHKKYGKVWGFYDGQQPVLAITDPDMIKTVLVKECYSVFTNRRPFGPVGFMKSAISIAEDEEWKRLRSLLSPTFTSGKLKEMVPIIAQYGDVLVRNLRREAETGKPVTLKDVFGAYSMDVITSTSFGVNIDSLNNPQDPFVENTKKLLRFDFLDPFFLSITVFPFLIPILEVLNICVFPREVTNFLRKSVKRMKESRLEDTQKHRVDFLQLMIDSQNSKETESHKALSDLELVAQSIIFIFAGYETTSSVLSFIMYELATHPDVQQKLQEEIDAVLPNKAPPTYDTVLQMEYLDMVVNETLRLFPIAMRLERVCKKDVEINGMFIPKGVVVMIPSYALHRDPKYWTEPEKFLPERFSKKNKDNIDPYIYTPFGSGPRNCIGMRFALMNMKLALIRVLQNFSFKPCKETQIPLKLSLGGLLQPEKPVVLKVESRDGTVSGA", "experiment": "CYP inhibition 3A4", "type": "in vitro ADME", "excerpt": "as §1"}, "HSA": {"molecular_target": "HSA (Homo sapiens, UniProt P02768)", "sequence (P02768 25-609)": "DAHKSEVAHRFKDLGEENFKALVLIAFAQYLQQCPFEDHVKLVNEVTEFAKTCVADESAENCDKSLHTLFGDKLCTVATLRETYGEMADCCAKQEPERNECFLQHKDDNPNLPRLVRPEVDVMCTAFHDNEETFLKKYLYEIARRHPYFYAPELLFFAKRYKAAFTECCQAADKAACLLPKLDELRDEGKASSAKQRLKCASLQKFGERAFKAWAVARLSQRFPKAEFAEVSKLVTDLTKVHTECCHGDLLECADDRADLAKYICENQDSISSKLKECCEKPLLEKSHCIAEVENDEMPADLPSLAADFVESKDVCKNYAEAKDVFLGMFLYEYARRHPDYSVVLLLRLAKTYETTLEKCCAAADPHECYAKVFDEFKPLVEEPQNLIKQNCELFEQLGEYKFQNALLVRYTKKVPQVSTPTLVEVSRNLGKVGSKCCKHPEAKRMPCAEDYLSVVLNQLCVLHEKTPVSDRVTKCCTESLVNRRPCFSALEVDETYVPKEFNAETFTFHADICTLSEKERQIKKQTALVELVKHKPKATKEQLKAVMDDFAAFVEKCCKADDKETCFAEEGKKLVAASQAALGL", "experiment": "Protein binding, HSA", "type": "in vitro ADME", "details": "4% HSA", "excerpt": "as §1"}, "[2]": {"test_system": "primary AML patient samples", "experiment": "Flow cytometry viability, primary AML long-term culture", "type": "cell-based, human", "description": "Cells were thawed in 50% FBS RPMI and then cultured in StemSpan (StemCell Technologies) media supplemented with human FLT3L, SCF, GM-CSF, G-CSF, IL-3, IL-6, TPO, and EPO cytokines for 7 days (LTC).\nAfter 72 hours or 7 days of treatment of DHODHi, cells were collected and washed with PBS, blocked with human Fc block (BioLegend), and stained with antibodies for 30 minutes on ice. Antibodies were washed off and cells resuspended in FACS buffer (2% FBS, 2 mM NaN3, Dulbecco’s PBS) for analysis using BD LSRFortessa or Cytek Aurora spectral flow cytometer. Live/dead exclusion was done using LIVE/DEAD Fixable Near-IR (Invitrogen). All antibodies were purchased from BioLegend except CD47, which was purchased from BD Biosciences: CD11b clone M1/70, CD38 clone HIT2, CD14 clone M5E2, CD47 clone B6H12, CD33 clone WM53, CD3 clone UCHT1, CD19 clone HIB19, and CD45 clone HI30.\nSupplemental Figure S.2. […] A).\nFlow cytometry analysis of viable primary AML patient samples (n=10) treated in vitro for seven days\n(long term culture, LTC). […]"}}, "note": "Where “and” joins values, the source holds several entries; their conditions need not be identical. Identical values can stand only once. Like-named read-outs stand apart in the source and are kept apart here."}
{"smiles": "CCCCOc1cccc(-c2ccc(-c3cc(C(=O)O)c4cc(F)ccc4n3)cc2)c1", "note": "[HOSU-53]", "values": [{"measurement": "Micronucleus Test", "setting": "Micronucleus Test", "value": "Negative"}, {"measurement": "Survival, day of study at event (per animal)", "setting": "[1]", "value": "57 days and 52 days and 56 days and 58 days and 55 days"}, {"measurement": "IC50", "setting": "OCI-AML3", "value": 0.02, "unit": "µM"}, {"measurement": "DHO AUC (Figure 3C y value)", "setting": "plasma DHO; Day 1", "value": "242.955 and 321.59 and 315.332"}, {"measurement": "DHO AUC (Figure 3C y value)", "setting": "plasma DHO; Day 14", "value": "411.662 and 445.373 and 347.096"}, {"measurement": "IC50", "setting": "CYP 3A4; substrate midazolam, read-out: CYP inhibition IC50 3A4 (Midazolam)", "value": 42.6, "unit": "µM"}, {"measurement": "IC50", "setting": "CYP 3A4; substrate testosterone, read-out: CYP inhibition IC50 3A4 (testosterone)", "value": 22.4, "unit": "µM"}, {"measurement": "fraction unbound", "setting": "HSA", "value": "< 0.01"}, {"measurement": "% Live (Near-IR negative)", "setting": "[2]; Pt.12, 50nM, DMSO 56.46", "value": 60.99, "unit": "%"}, {"measurement": "% Live (Near-IR negative)", "setting": "[2]; Pt.12, 100nM, DMSO 56.46", "value": 59.36, "unit": "%"}, {"measurement": "% Live (Near-IR negative)", "setting": "[2]; Pt.13, 50nM, DMSO 72.92", "value": 72.53, "unit": "%"}, {"measurement": "% Live (Near-IR negative)", "setting": "[2]; Pt.13, 100nM, DMSO 72.92", "value": 66.43, "unit": "%"}, {"measurement": "% Live (Near-IR negative)", "setting": "[2]; Pt.14, 50nM, DMSO 68.39", "value": 70.9, "unit": "%"}, {"measurement": "% Live (Near-IR negative)", "setting": "[2]; Pt.14, 100nM, DMSO 68.39", "value": 55.21, "unit": "%"}, {"measurement": "% Live (Near-IR negative)", "setting": "[2]; Pt.15, 50nM, DMSO 61.7", "value": 41.58, "unit": "%"}, {"measurement": "% Live (Near-IR negative)", "setting": "[2]; Pt.15, 100nM, DMSO 61.7", "value": 27.92, "unit": "%"}, {"measurement": "% Live (Near-IR negative)", "setting": "[2]; Pt.16, 50nM, DMSO 45.99", "value": 41.34, "unit": "%"}, {"measurement": "% Live (Near-IR negative)", "setting": "[2]; Pt.16, 100nM, DMSO 45.99", "value": 32.16, "unit": "%"}, {"measurement": "% Live (Near-IR negative)", "setting": "[2]; Pt.17, 50nM, DMSO 29.84", "value": 29.21, "unit": "%"}, {"measurement": "% Live (Near-IR negative)", "setting": "[2]; Pt.17, 100nM, DMSO 29.84", "value": 25.94, "unit": "%"}, {"measurement": "% Live (Near-IR negative)", "setting": "[2]; Pt.18, 50nM, DMSO 29.72", "value": 26.96, "unit": "%"}, {"measurement": "% Live (Near-IR negative)", "setting": "[2]; Pt.18, 100nM, DMSO 29.72", "value": 23.34, "unit": "%"}, {"measurement": "% Live (Near-IR negative)", "setting": "[2]; Pt.19, 50nM, DMSO 75.66", "value": 74.9, "unit": "%"}, {"measurement": "% Live (Near-IR negative)", "setting": "[2]; Pt.19, 100nM, DMSO 75.66", "value": 58.74, "unit": "%"}, {"measurement": "% Live (Near-IR negative)", "setting": "[2]; Pt.20, 50nM, DMSO 67.67", "value": 44.64, "unit": "%"}, {"measurement": "% Live (Near-IR negative)", "setting": "[2]; Pt.20, 100nM, DMSO 67.67", "value": 42.59, "unit": "%"}, {"measurement": "% Live (Near-IR negative)", "setting": "[2]; Pt.2, 50nM, DMSO 78.52", "value": 59.04, "unit": "%"}, {"measurement": "% Live (Near-IR negative)", "setting": "[2]; Pt.2, 100nM, DMSO 78.52", "value": 32.63, "unit": "%"}, {"measurement": "cell viability", "setting": "[2]; primary AML samples, 7 days LTC", "value": "reduced cell viability"}]}
